US12655116B2, “Substituted isophthalic acid diamides” (Bayer Aktiengesellschaft, priority 2020, dated 2026)

Experiments:
ABUTH [1] = assay: Pre-emergence herbicidal action against ABUTH; format: in vivo, Abutilon theophrasti
Procedure, shortened: (§1)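 Herbicidal effect was assessed 3 weeks after treatment by visual comparison with untreated controls, 100% denoting dead plants. Aqueous WP or EC preparations had been applied at 600 to 800 l/ha with 0.2% wetting agent to the soil covering freshly sown seeds.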

ALOMY [2] = assay: Pre-emergence herbicidal action against ALOMY; format: in vivo, Alopecurus myosuroides; settings: 80 g/ha, pre-emergence, scored visually after 3 weeks vs untreated controls (100% = plants have died, 0% = like control plants)
Procedure, shortened: as §1

AMARE [3] = assay: Pre-emergence herbicidal action against AMARE; format: in vivo, Amaranthus retroflexus
Procedure, shortened: as §1

AVEFA = assay: Pre-emergence herbicidal action against AVEFA; format: in vivo, Avena fatua; settings: pre-emergence
Procedure, shortened: as §1

ECHCG [4] = assay: Pre-emergence herbicidal action against ECHCG; format: in vivo, Echinochloa crus-galli
Procedure, shortened: as §1

HORMU = assay: Pre-emergence herbicidal action against HORMU; format: in vivo, Hordeum murinum; settings: 80 g/ha, pre-emergence
From the text: Seeds of monocotyledonous and dicotyledonous weed plants and crop plants are laid out in sandy loam soil in wood-fiber pots and covered with soil. The compounds of the invention, formulated in the form of wettable powders (WP) or as emulsion concentrates (EC), are then applied to the surface of the covering soil in the form of an aqueous suspension or emulsion at a water application rate equivalent to 600 to 800 l/ha, with addition of 0.2% wetting agent. After the treatment, the pots are placed in a greenhouse and kept under good growth conditions for the trial plants. The damage to the test plants is scored visually after a test period of 3 weeks by comparison with untreated controls (herbicidal activity in percent (%): 100% activity=the plants have died, 0% activity=like control plants). […] The tables below illustrate, in an illustrative manner, the post-emergence herbicidal action of the compounds of the invention, the herbicidal activity being stated in percent.

MATIN [5] = assay: Pre-emergence herbicidal action against MATIN; format: in vivo, Matricaria inodora
Procedure, shortened: as §1

SETVI [6] = assay: Pre-emergence herbicidal action against SETVI; format: in vivo, Setaria viridis
Procedure, shortened: as §1

STEME [7] = assay: Pre-emergence herbicidal action against STEME; format: in vivo, Stellaria media
Procedure, shortened: as §1

VIOTR [8] = assay: Pre-emergence herbicidal action against VIOTR; format: in vivo, Viola tricolor
Procedure, shortened: as §1

DIGSA [9] = assay: Pre-emergence herbicidal action against DIGSA; format: in vivo, Digitaria sanguinalis
Procedure, shortened: as §1

ABUTH [10] = assay: Post-emergence herbicidal action against ABUTH; format: in vivo, Abutilon theophrasti; settings: visual assessment about 3 weeks after treatment vs untreated controls
Procedure, shortened: (§2)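 Herbicidal effect was scored visually in percent after about 3 weeks in the greenhouse. Plants had been raised in sandy loam and treated post-emergence at the one-leaf stage with formulated compound at 600 to 800 l/ha water plus 0.2% wetting agent.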

ALOMY [11] = assay: Post-emergence herbicidal action against ALOMY; format: in vivo, Alopecurus myosuroides; settings: dosage 20 g/ha, visual assessment about 3 weeks after treatment vs untreated controls
Procedure, shortened: as §2

AMARE [12] = assay: Post-emergence herbicidal action against AMARE; format: in vivo, Amaranthus retroflexus; settings: 20 g/ha, visual assessment about 3 weeks after treatment, 100% = plants have died, 0% = like control plants
Procedure, shortened: as §2

ECHCG [13] = assay: Post-emergence herbicidal action against ECHCG; format: in vivo, Echinochloa crus-galli
Procedure, shortened: as §2

MATIN [14] = assay: Post-emergence herbicidal action against MATIN; format: in vivo, Matricaria inodora
Procedure, shortened: as §2

SETVI [15] = assay: Post-emergence herbicidal action against SETVI; format: in vivo, Setaria viridis
Procedure, shortened: as §2

STEME [16] = assay: Post-emergence herbicidal action against STEME; format: in vivo, Stellaria media
Procedure, shortened: as §2

VIOTR [17] = assay: Post-emergence herbicidal action against VIOTR; format: in vivo, Viola tricolor; settings: 20 g/ha
Procedure, shortened: as §2

DIGSA [18] = assay: Post-emergence herbicidal action against DIGSA; format: in vivo, Digitaria sanguinalis; settings: for Post-emergence action against DIGSA: 20 g/ha
Procedure, shortened: as §2

POLCO = assay: Pre-emergence herbicidal action against POLCO; format: in vivo, Polygonum convolvulus
Procedure, shortened: as §1

PHBPU = assay: Post-emergence herbicidal action against PHBPU; format: in vivo, Pharbitis purpurea
Procedure, shortened: as §2

[19] = 80 g/ha, scored visually after 3 weeks vs untreated controls (100% = plants have died, 0% = like control plants)
[20] = dosage 20 g/ha, scored visually after 3 weeks vs untreated controls, 100% = plants have died, 0% = like control plants
[21] = 20 g/ha, scored visually after 3 weeks vs untreated controls, 100% = plants have died, 0% = like control plants
[22] = Tripleurospermum inodorum, 504 h, dosage 20 g/ha

Cc1nnc(NC(=O)c2ccc(C(F)F)c(C(=O)NC3CC3)c2Cl)o1 [Example 6-124]
90%: Pre-emergence action against ALOMY (herbicidal activity) (ALOMY [2]) | Pre-emergence action against AVEFA in % (AVEFA; 80 g/ha) | Pre-emergence action against MATIN in % (MATIN [5]; dosage 20 g/ha) | Pre-emergence action against STEME in % (STEME [7]; dosage 80 g/ha) | Post-emergence action against ALOMY in % (ALOMY [11]) | Post-emergence action against SETVI in % (SETVI [15]; dosage 20 g/ha) | Post-emergence action against STEME in % (STEME [16]; 20 g/ha) | Post-emergence action against STEME in % (STEME [16]; dosage 5 g/ha) | Post-emergence action against DIGSA (DIGSA [18])
100%: Pre-emergence action against ABUTH (herbicidal activity) (ABUTH [1]; [19]) | Pre-emergence action against ABUTH (herbicidal activity in percent) (ABUTH [1]; [20]) | Pre-emergence action against AMARE in % (AMARE [3]; [21]) | Pre-emergence action against AMARE in % (AMARE [3]; [19]) | Pre-emergence action against ECHCG in % (ECHCG [4]; 80 g/ha) | Pre-emergence action against MATIN in % (MATIN [5]; dosage 80 g/ha) | Pre-emergence action against SETVI in % (SETVI [6]; dosage 80 g/ha) | Pre-emergence action against VIOTR in % (VIOTR [8]; dosage 80 g/ha) | Pre-emergence action against DIGSA in % (DIGSA [9]; dosage 80 g/ha) | Post-emergence action at 20 g/ha against AMARE in % (AMARE [12]) | Post-emergence action against VIOTR in % (VIOTR [17])
80%: Pre-emergence action against ECHCG in % (ECHCG [4]; 20 g/ha) | Pre-emergence action against HORMU in % (HORMU) | Pre-emergence action against SETVI in % (SETVI [6]; dosage 20 g/ha) | Pre-emergence action against STEME in % (STEME [7]; dosage 20 g/ha) | Post-emergence action against ABUTH in % (ABUTH [10]; dosage 5 g/ha) | Post-emergence action against ABUTH in % (ABUTH [10]; dosage 20 g/ha) | Post-emergence action against ECHCG in % (ECHCG [13]; dosage 20 g/ha) | Post-emergence action against MATIN in % (MATIN [14]; dosage 20 g/ha) | Post-emergence action against SETVI in % (SETVI [15]; dosage 5 g/ha)

CCCn1nnnc1NC(=O)c1ccc(C(F)(F)F)c(C(=O)NCC)c1C [Example 3-26]
100%: pest or weed control at 80 g/ha (ABUTH [1]; Abutilon theophrasti, 504 h, 80 g/ha, scored visually after 3 weeks vs untreated controls (100% = plants have died, 0% = like control plants)) | pest or weed control at 20 g/ha (ABUTH [1]; Abutilon theophrasti, 504 h, dosage 20 g/ha, scored visually after 3 weeks vs untreated controls, 100% = plants have died, 0% = like control plants, read-out: Pre-emergence action against ABUTH (herbicidal activity in percent)) | pest or weed control at 20 g/ha (AMARE [3]; Amaranthus retroflexus, 504 h, 20 g/ha, scored visually after 3 weeks vs untreated controls, 100% = plants have died, 0% = like control plants) | pest or weed control at 80 g/ha (AMARE [3]; Amaranthus retroflexus, 504 h, 80 g/ha, scored visually after 3 weeks vs untreated controls, 100% = plants have died, 0% = like control plants) | pest or weed control at 80 g/ha (AVEFA; Avena fatua, 504 h, 80 g/ha) | pest or weed control at 80 g/ha (MATIN [5]; Tripleurospermum inodorum, 504 h, dosage 80 g/ha) | pest or weed control at 80 g/ha (STEME [7]; Stellaria media, 504 h, dosage 80 g/ha) | pest or weed control at 20 g/ha (VIOTR [8]; Viola tricolor, 504 h, dosage 20 g/ha) | pest or weed control at 80 g/ha (VIOTR [8]; Viola tricolor, 504 h, dosage 80 g/ha) | pest or weed control at 80 g/ha (DIGSA [9]; Digitaria sanguinalis, 504 h, dosage 80 g/ha)
90%: pest or weed control at 20 g/ha (MATIN [5]; [22]) | pest or weed control at 80 g/ha (POLCO; Fallopia convolvulus, 504 h, dosage 80 g/ha) | pest or weed control at 20 g/ha (ABUTH [10]; Abutilon theophrasti, 504 h, dosage 20 g/ha) | pest or weed control at 20 g/ha (AMARE [12]; Amaranthus retroflexus, 504 h) | pest or weed control at 5 g/ha (MATIN [14]; Tripleurospermum inodorum, 504 h, dosage 5 g/ha) | pest or weed control at 20 g/ha (MATIN [14]; [22]) | pest or weed control at 20 g/ha (PHBPU; Ipomoea purpurea, 504 h, dosage 20 g/ha) | pest or weed control at 20 g/ha (STEME [16]; Stellaria media, 504 h, 20 g/ha) | pest or weed control at 20 g/ha (VIOTR [17]; Viola tricolor, 504 h)
80%: pest or weed control at 80 g/ha (ALOMY [2]; Alopecurus myosuroides, 504 h) | pest or weed control at 20 g/ha (AVEFA; Avena fatua, 504 h, 20 g/ha, scored visually after 3 weeks, 100% = plants have died, 0% = like control plants) | pest or weed control at 80 g/ha (HORMU; Hordeum murinum, 504 h) | pest or weed control at 20 g/ha (POLCO; Fallopia convolvulus, 504 h, dosage 20 g/ha) | pest or weed control at 20 g/ha (STEME [7]; Stellaria media, 504 h, dosage 20 g/ha) | pest or weed control at 5 g/ha (ABUTH [10]; Abutilon theophrasti, 504 h, dosage 5 g/ha) | pest or weed control at 20 g/ha (ALOMY [11]; Alopecurus myosuroides, 504 h) | pest or weed control at 5 g/ha (PHBPU; Ipomoea purpurea, 504 h, dosage 5 g/ha)

CCNC(=O)c1c(C(F)(F)F)ccc(C(=O)Nc2nnc(C)o2)c1Br [Example 6-159]
80%: Pre-emergence action against ALOMY (herbicidal activity) (ALOMY [2]) | Pre-emergence action against HORMU in % (HORMU) | Pre-emergence action against POLCO in % (POLCO; dosage 80 g/ha) | Pre-emergence action against STEME in % (STEME [7]; dosage 20 g/ha) | Post-emergence action against ALOMY in % (ALOMY [11]) | Post-emergence action against ECHCG in % (ECHCG [13]; dosage 5 g/ha) | Post-emergence action against PHBPU in % (PHBPU; dosage 20 g/ha) | Post-emergence action against DIGSA in % (DIGSA [18]; 5 g/ha)
100%: Pre-emergence action against ABUTH (herbicidal activity) (ABUTH [1]; [19]) | Pre-emergence action against ABUTH (herbicidal activity in percent) (ABUTH [1]; [20]) | Pre-emergence action against AMARE in % (AMARE [3]; [21]) | Pre-emergence action against AMARE in % (AMARE [3]; [19]) | Pre-emergence action against ECHCG in % (ECHCG [4]; 80 g/ha) | Pre-emergence action against MATIN in % (MATIN [5]; dosage 20 g/ha) | Pre-emergence action against MATIN in % (MATIN [5]; dosage 80 g/ha) | Pre-emergence action against SETVI in % (SETVI [6]; dosage 80 g/ha) | Pre-emergence action against STEME in % (STEME [7]; dosage 80 g/ha) | Pre-emergence action against VIOTR in % (VIOTR [8]; dosage 80 g/ha) | Pre-emergence action against DIGSA in % (DIGSA [9]; dosage 80 g/ha) | Post-emergence action against ABUTH in % (ABUTH [10]; dosage 20 g/ha) | Post-emergence action at 20 g/ha against AMARE in % (AMARE [12])
90%: Pre-emergence action against AVEFA in % (AVEFA; 80 g/ha) | Pre-emergence action against DIGSA in % (DIGSA [9]; dosage 20 g/ha) | Post-emergence action against ABUTH in % (ABUTH [10]; dosage 5 g/ha) | Post-emergence action against ECHCG in % (ECHCG [13]; dosage 20 g/ha) | Post-emergence action against MATIN in % (MATIN [14]; dosage 20 g/ha) | Post-emergence action against STEME in % (STEME [16]; 20 g/ha) | Post-emergence action against DIGSA (DIGSA [18])
